Experiments:
[1] = system: surface/cytoplasmic nucleolin; test: Down regulation of surface/cytoplasmic nucleolin in MDA-MB 231 cells, immunoblotting; format: cell-based, human; conditions: MDA-MB 231, 10 μM, 16 hours, immunoblotting with mAb D3; nuclear nucleolin not affected
Experimental: Nucleolin was analyzed by immunoblotting using either the monoclonal antibody (mAb) D3 against nucleolin (kindly provided by Dr. J. S. Deng), or rabbit polyclonal antibodies directed against a synthetic peptide corresponding to the first 26 ([…]) and the last 16 ([…]) amino acid residues of human nucleolin as described before. […] The reacting bands were visualized with an enhanced chemiluminescence (ECL) reagent and by exposure to autoradiography film (Amersham Biosciences). In some experiments, the presence of actin was monitored as a control with mAb anti-actin A-4700 (Sigma). […]
Figure 2 HB-19 and related Nucant pseudopeptides antagonize surface nucleolin and trigger its down regulation. […] At 48 h post-infection, the β-galactosidase activity was measured in cell extracts directly to monitor HIV entry (Methods). The abscissa gives % Activity of surface nucleolin calculated from the optical density measurements at 570 nm. […] Cytoplasmic (containing cytoplasmic as well as surface nucleolin) and nuclear extracts were analyzed by immunoblotting using mAb D3 as described (Methods)(panels Surface/cytoplasmic NCL, Nuclear NCL). […] HeLa cells in the absence (histogram C) or presence of 1, 2, 5, and 10 μM of N6L were cultured for 7 hours before preparation of cell extracts and immunoblotting as in section B. The intensity of nucleolin protein bands was quantified by using the NIH image software. […]

surface nucleolin = test: HIV-1 LAI entry into HeLa-CD4-LTR-LacZ cells (β-galactosidase): function of surface nucleolin; format: cell-based, human; conditions: 0.05-0.8 μM, β-galactosidase at 48 h post-infection
From the text: Surface nucleolin serves as a low affinity receptor implicated in the binding and entry of HIV-1 particles into permissive cells. Consequently, HB-19 treatment of cells prevents HIV binding to cells and thus HIV entry and infection. Here HIV-1 LAI entry was monitored in HeLa-CD4-LTR-LacZ cells containing the bacterial lacZ gene under the control of HIV-1 LTR. Virus entry and replication result in trans-activation of HIV-1 LTR by the viral Tat protein, leading to the expression of β-galactosidase. At 48 h post-infection, cell monolayers are lysed in a phosphate buffer containing Nonidet P-40 (Sigma) (1%; v ⁄ v) and assayed for β-galactosidase activity by measuring optical density at 570 nm.
Figure 2 HB-19 and related Nucant pseudopeptides antagonize surface nucleolin and trigger its down regulation. A. Multivalent pseudopeptides block the biological function of surface nucleolin for HIV entry. […] At 48 h post-infection, the β-galactosidase activity was measured in cell extracts directly to monitor HIV entry (Methods). The abscissa gives % Activity of surface nucleolin calculated from the optical density measurements at 570 nm. […] Cytoplasmic (containing cytoplasmic as well as surface nucleolin) and nuclear extracts were analyzed by immunoblotting using mAb D3 as described (Methods)(panels Surface/cytoplasmic NCL, Nuclear NCL). […]

melanoma TIII cell = test: Cell adhesion; format: cell-based, murine; conditions: after 5 hours of cell seeding, vs untreated control, mean of at least 2 independent experiments

| Substance | level of surface/cytoplasmic nucleolin [1] | inhibitory activity on HIV-1 entry, fold more active compared to the pentavalent constructs N3 and HB-19 (surface nucleolin) | % Inhibition of cell Adhesion (melanoma TIII cell; 2.5 μM) [%] | % Inhibition of cell Adhesion (melanoma TIII cell; 5 μM) [%] | % Inhibition of cell Adhesion (melanoma TIII cell; 10 μM) [%] | % Inhibition of cell Adhesion (melanoma TIII cell; 20 μM) [%] |
| --- | --- | --- | --- | --- | --- | --- |
| Ac-KAKPGKAKPGKAKPG-NH2 [Nucant N7, Presents hexavalently the pseudo-tripeptide Lysψ(CH2N)-Pro-Arg coupled to a similar template as in HB-19] | almost completely abolished | at least 2 fold |  |  |  |  |
| Ac-Lys-Aib-Gly-Lys-Aib-Gly-Lys-Aib-Gly-Lys-Aib-Gly-Lys-Aib-Gly-Lys-Aib-Gly-CONH2 [Nucant N6, Presents hexavalently the pseudo-tripeptide Lysψ(CH2N)-Pro-Arg coupled to the polypeptide template containing Aib] | almost completely abolished | at least 2 fold | 15 | 26 | 38 | 55 |
